Source: publication PMC10689823, “Discovery of a Drug-like, Natural Product-Inspired DCAF11 Ligand Chemotype” (Nature Communications, 2023)
Where “and” joins values, the source holds several entries; their conditions need not be identical. Equal entries are not always repeated.

What was measured:
[1] = molecular target: T1, SIRT2 (Homo sapiens, UniProt Q8IXJ6); experiment: SIRT activity assay SIRT2; type: biochemical; conditions: SIRT2 activity in presence of 3 µM compound 42
T1 construct: purchased BPS Bioscience 50087 (assay kit)
T1 sequence (Q8IXJ6 whole entry): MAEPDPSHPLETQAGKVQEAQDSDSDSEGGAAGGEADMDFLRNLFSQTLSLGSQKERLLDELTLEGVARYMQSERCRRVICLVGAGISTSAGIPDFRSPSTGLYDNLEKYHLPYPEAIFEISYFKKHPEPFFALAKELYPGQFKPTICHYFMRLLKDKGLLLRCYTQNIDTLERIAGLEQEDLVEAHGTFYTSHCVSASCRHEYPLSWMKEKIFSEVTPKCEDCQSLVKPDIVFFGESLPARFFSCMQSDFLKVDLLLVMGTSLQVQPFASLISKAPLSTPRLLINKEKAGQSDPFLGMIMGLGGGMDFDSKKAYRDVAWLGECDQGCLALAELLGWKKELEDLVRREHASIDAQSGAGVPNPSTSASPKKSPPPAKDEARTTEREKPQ
Experimental: (§1) In vitro enzymatic SIRT assays were performed by BPS Bioscience for SIRT1, SIRT2, SIRT3, SIRT5 and SIRT6 using the respective SIRT Fluorogenic Assay Kit (BPS Bioscience, catalog numbers 50081, 50087, 50088, 50085 and 50022). The compound was pre-incubated in for 30 min at room temperature in a mixture containing SIRT assay buffer, 5 μg BSA, SIRT enzyme. Afterwards, the enzymatic reaction was initiated by the addition of SIRT substrate to a final concentration of 10 μM. The enzymatic reaction proceeded for 30 min at 37 °C followed by the addition of 2 x SIRT Developer and incubation at room temperature for 15 min. Fluorescence intensity was measured at an ex/em 360/460 nm using a Tecan Infinite M1000 microplate reader.

[2] = test system: BRD2; experiment: In-Cell Western for BRD2 levels in Hep G2 cells; type: cell-based; conditions: then 9 (10 μM, 4 h)
Procedure, shortened: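 Hep G2 cells were treated with compound for the indicated time and concentration. After fixation and permeabilisation, BRD2 was immunostained and read by near-infrared imaging. BRD2 signal was normalised to vinculin.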

[3] = test system: wildtype and mutant 482 kinases; experiment: Kinase profiling (SelectScreen); type: biochemical; conditions: 10 µM; panel of 482 wildtype and mutant kinases
Experimental: Compound 42 was profiled in duplicate at 10 µM against wildtype and mutant 482 kinases using the SelectScreen Kinase profiling services (ThermoFisher Scientific, USA) using enzymatic assays (Z’-Lyte and Adapta technology) or binding assays (LanthaScreen Eu kinase binding assays) (see https://www.thermofisher.com/de/de/home/products-and-services/services/custom-services/screening-and-profiling-services/selectscreen-profiling-service/selectscreen-kinase-profiling-service.html).

[4] = molecular target: T2, SIRT3 (Homo sapiens, UniProt Q9NTG7); experiment: SIRT activity assay SIRT3; type: biochemical; conditions: SIRT3 activity in presence of 3 µM compound 42
T2 construct: purchased BPS Bioscience 50088 (assay kit)
T2 sequence (Q9NTG7 whole entry): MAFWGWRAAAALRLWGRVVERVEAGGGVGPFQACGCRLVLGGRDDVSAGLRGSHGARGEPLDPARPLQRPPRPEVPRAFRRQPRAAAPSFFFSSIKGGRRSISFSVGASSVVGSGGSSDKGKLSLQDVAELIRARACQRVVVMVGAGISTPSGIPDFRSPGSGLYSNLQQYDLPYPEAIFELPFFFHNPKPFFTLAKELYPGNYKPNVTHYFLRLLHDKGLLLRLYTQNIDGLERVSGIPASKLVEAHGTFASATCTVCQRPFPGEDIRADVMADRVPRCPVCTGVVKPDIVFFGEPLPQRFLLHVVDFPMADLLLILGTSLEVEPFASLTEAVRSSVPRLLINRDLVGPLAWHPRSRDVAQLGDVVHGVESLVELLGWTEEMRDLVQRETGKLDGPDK
Experimental: as §1

[5] = molecular target: T3, SIRT5 (Homo sapiens, UniProt Q9NXA8); experiment: SIRT activity assay SIRT5; type: biochemical; conditions: SIRT5 activity in presence of 3 µM compound 42
T3 construct: purchased BPS Bioscience 50085 (assay kit)
T3 sequence (Q9NXA8 37-310): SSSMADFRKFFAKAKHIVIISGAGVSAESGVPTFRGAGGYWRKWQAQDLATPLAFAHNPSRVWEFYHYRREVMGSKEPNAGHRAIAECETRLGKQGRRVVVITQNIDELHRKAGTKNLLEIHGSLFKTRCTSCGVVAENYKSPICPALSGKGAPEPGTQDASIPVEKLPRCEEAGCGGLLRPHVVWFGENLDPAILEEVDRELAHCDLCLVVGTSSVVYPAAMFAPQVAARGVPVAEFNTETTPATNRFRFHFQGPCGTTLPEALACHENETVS
Experimental: as §1

[6] = molecular target: T4, SIRT1 (Homo sapiens, UniProt Q96EB6); experiment: SIRT activity assay SIRT1; type: biochemical; conditions: SIRT1 activity in presence of 3 µM compound 42
T4 construct: purchased BPS Bioscience 50081 (assay kit)
T4 sequence (Q96EB6 whole entry): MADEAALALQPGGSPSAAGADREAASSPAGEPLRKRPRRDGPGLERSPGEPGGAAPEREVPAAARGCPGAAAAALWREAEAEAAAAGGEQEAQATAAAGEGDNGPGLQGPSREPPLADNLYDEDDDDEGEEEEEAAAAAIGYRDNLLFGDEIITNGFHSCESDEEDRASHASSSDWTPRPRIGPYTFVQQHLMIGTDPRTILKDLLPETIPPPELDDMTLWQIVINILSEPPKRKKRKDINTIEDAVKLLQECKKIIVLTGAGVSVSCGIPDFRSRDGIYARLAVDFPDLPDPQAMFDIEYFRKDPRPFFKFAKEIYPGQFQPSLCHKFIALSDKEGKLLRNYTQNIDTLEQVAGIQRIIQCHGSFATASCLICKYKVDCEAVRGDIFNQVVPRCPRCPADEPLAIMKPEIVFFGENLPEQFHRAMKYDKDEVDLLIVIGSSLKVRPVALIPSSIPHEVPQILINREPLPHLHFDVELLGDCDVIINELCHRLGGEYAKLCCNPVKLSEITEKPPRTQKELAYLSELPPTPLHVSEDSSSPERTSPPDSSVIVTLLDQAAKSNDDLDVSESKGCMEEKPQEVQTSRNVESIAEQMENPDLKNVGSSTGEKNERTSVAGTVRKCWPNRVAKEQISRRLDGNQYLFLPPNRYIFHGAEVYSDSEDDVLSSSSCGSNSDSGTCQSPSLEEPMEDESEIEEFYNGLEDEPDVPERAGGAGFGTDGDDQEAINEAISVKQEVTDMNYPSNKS
Experimental: as §1

[7] = molecular target: T5, SIRT6 (Homo sapiens, UniProt Q8N6T7); experiment: SIRT activity assay SIRT6; type: biochemical; conditions: SIRT6 activity in presence of 3 µM compound 42
T5 construct: purchased BPS Bioscience 50022 (assay kit)
T5 sequence (Q8N6T7 whole entry): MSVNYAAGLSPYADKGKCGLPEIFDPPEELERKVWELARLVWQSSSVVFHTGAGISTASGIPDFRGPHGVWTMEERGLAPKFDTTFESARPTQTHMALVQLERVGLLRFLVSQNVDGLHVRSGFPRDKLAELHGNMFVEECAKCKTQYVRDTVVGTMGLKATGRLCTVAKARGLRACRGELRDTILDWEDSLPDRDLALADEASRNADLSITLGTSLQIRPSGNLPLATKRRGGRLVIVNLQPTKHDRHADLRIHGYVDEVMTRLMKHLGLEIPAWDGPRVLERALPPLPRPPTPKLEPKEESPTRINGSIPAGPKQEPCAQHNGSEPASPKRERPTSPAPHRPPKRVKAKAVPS
Experimental: as §1

For `O=C1Nc2ccc(Br)cc2C1=Cc1cc(Br)c(OCCO)c(Br)c1` [Compound 42], the “Activity [%] (N=1)” value [1] was 104%, the “Activity [%] (N=2)” value [1] was 111% and the “BRD2/Vinculin intensity (relative to control group)” value ([2]; Hep G2 cells, pretreated with compound at 30 μM 1 h, single repeats, Fig. 4h) was 46.6052 and 52.1075 and 59.9094 and 63.5387. The “Value (Mean ± SD): Relative BRD2 levels remaining in Hep G2 cells after treatment with compounds followed by treatment with 9, with DMSO control for normalization” value ([2]; qualitative ICW assay, pretreated at 30 μM 1 h, Supplementary Table 1) was 55.54 ± 6.61, the “number of wildtype kinases inhibited by more than 50 %” value [3] was “seven” and the “Activity [%] (N=1)” value [4] was 67%. The “Activity [%] (N=2)” value [4] was 67%, the “Activity [%] (N=1)” value [5] was 95% and the “Activity [%] (N=2)” value [5] was 98%. For the same compound, the “Activity [%] (N=1)” value [6] was 93%, the “Activity [%] (N=2)” value [6] was 97% and the “Activity [%] (N=1)” value [7] was 87%. The “Activity [%] (N=2)” value [7] was 90%.
